Holding throughout (assay type): biochemical
The target of one assay is T1, PI3Kβ (Homo sapiens, UniProt P42338).
T1 construct: made in house
As to the kind of experiment: TR-FRET enzymatic activity assay, PI3Kβ.

Another assay deals with T2, PI3Kδ (Homo sapiens, UniProt O00329).
T2 construct: made in house
The experiment in a line: TR-FRET enzymatic activity assay, PI3Kδ. A general note: Time-resolved FRET reads energy transfer from a long-lived donor to a nearby acceptor.

For the next assay, the target named is T3, PI3Kγ (Homo sapiens, UniProt P48736).
T3 construct: made in house
T3 sequence (P48736 whole entry): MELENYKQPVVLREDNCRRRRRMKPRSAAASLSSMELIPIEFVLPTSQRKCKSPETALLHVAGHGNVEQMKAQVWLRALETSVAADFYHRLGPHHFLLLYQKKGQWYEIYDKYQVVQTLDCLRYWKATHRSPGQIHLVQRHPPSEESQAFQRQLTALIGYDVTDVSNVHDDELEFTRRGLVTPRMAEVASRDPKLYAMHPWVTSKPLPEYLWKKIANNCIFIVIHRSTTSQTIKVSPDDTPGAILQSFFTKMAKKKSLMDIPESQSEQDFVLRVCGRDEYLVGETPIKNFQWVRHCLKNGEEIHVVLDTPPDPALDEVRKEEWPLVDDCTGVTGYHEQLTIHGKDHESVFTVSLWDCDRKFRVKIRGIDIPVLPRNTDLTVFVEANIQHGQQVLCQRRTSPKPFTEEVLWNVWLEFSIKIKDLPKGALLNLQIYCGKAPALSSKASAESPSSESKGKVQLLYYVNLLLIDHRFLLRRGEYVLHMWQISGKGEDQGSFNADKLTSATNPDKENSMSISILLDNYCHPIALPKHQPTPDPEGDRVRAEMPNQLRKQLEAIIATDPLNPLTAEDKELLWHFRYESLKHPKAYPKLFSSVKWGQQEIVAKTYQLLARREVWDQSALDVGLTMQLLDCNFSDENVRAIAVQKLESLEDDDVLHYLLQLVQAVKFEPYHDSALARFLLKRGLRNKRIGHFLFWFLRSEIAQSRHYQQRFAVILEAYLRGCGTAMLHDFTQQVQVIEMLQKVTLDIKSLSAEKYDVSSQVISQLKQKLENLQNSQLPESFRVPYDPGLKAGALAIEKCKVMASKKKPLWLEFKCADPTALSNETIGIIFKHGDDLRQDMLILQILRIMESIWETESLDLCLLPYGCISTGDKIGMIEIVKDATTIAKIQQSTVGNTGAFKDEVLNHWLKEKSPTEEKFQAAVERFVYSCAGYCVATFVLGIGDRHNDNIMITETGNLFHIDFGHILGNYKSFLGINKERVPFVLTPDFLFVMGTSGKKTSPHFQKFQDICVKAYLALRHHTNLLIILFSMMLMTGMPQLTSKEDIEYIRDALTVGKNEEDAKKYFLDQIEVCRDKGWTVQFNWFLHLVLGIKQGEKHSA
As to the kind of experiment: TR-FRET enzymatic activity assay, PI3Kγ. Particulars: read-out: PI3Kγ IC50. On the procedure:
The compounds of formula (I) were characterized for their enzymatic activity against the PI3K isoforms. The activities were measured using a time-resolved fluorescence resonance energy transfer (TR-FRET) assay.

[1] abbreviates: Table 2, TR-FRET, 2x Km ATP, 30 minutes at 25° C.

The structures appear in SMILES notation. pIC50: −log10 of the molar value. Where two headings read alike, the source gives them in different places. A value given as a limit tells only on which side of the number the result lay.

T2 sequence (O00329 whole entry): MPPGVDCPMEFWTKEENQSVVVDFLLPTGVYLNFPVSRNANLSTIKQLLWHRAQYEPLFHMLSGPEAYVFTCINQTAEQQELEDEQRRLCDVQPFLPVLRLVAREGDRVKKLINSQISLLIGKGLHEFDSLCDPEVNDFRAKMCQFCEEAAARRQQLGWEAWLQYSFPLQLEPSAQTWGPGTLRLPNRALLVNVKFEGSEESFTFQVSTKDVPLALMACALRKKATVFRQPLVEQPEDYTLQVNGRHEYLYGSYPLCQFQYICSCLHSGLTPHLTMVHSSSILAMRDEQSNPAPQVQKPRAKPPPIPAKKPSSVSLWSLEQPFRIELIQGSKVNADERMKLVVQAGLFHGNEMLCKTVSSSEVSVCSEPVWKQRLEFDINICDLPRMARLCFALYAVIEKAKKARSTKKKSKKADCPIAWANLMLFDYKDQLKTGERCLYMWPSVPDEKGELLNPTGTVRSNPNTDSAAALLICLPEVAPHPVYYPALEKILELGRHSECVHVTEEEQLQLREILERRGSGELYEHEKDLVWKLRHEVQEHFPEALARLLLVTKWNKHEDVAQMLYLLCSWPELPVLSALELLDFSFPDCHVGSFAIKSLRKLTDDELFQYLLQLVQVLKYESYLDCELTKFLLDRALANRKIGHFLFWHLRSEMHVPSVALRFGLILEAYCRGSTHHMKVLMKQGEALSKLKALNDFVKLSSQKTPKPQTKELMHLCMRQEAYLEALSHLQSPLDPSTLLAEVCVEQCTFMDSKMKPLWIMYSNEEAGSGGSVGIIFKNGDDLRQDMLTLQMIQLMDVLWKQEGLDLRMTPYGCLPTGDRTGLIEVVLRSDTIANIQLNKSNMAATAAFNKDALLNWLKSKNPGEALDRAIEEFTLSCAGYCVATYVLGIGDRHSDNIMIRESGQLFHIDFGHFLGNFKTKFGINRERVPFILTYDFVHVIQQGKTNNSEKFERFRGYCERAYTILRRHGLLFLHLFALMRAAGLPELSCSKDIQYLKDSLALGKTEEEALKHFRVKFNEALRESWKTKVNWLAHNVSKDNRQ
T2 sequence (P27986 whole entry partner): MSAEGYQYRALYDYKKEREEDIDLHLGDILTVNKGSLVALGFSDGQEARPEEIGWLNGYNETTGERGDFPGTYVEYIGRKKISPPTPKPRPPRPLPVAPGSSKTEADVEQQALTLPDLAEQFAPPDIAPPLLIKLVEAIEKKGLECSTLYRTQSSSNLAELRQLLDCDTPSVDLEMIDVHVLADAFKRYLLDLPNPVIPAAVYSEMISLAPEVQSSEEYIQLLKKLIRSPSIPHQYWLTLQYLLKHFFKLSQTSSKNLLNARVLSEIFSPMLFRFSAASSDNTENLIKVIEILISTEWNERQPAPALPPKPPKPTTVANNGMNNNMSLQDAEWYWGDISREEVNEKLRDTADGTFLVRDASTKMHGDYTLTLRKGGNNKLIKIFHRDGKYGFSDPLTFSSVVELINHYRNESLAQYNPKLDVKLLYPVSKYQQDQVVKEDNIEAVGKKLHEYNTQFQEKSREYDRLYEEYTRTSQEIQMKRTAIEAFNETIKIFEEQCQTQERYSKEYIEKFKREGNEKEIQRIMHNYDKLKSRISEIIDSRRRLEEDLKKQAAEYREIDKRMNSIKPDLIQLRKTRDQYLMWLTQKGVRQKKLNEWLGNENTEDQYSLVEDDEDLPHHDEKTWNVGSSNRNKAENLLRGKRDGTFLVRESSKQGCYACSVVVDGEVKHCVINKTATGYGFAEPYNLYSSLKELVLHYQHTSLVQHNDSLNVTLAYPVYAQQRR
T1 sequence (P42338 whole entry): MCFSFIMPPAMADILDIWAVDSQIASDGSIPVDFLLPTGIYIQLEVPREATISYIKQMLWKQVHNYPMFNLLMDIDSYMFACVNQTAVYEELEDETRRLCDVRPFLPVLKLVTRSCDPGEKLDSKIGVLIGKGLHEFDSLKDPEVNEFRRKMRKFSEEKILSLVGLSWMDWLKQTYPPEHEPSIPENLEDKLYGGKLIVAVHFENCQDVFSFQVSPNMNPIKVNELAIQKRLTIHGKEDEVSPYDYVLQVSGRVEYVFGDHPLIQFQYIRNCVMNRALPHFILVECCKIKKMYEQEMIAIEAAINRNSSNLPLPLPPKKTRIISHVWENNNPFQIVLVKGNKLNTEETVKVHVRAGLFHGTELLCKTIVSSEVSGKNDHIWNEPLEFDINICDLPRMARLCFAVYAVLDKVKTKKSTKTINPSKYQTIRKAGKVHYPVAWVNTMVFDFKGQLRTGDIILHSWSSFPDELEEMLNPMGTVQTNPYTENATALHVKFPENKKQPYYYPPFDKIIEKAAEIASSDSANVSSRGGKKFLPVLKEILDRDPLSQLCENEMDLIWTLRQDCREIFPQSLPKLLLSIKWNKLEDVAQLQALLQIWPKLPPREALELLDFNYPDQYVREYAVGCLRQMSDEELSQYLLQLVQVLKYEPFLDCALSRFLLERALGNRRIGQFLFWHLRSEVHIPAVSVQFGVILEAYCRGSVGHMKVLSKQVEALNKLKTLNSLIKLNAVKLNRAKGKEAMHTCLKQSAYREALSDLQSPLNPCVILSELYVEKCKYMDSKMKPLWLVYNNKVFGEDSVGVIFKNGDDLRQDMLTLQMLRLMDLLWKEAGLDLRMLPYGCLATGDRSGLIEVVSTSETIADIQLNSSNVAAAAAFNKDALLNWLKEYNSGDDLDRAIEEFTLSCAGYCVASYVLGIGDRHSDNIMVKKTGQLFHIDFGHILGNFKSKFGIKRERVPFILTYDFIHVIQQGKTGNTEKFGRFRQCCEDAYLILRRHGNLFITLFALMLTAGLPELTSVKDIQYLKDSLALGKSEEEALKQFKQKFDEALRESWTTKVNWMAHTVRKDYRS
T1 sequence (P27986 whole entry partner): as the sequence (P27986 whole entry partner) above

On to `C[C@H](Nc1nc(N)nc(N)c1C#N)c1nc2cccc(Cl)c2c(=O)n1-c1ccccc1` [(S)-2,4-diamino-6-((1-(5-chloro-4-oxo-3-phenyl-3,4-dihydroquinazolin-2-yl)ethyl)amino)pyrimidine-5-carbonitrile], for which, on PI3Kβ (ratio of IC50 values, text b271), the “PI3Kγ/PI3Kβ IC50 ratio” value is on record as “less than 1 fold”.
In general, pIC50 refers to the IC50 on a negative log10 scale, so that one unit is a factor of ten. Take `CC[C@H](Nc1nc(N)nc(N)c1C#N)c1nc2cccc(Cl)c2c(=O)n1-c1cc[nH]n1` [Compound 1, (S)-2,4-diamino-6-((1-(5-chloro-4-oxo-3-(1H-pyrazol-3-yl)-3,4-dihydroquinazolin-2-yl)propyl)amino)pyrimidine-5-carbonitrile]: the values for the pIC50 at PI3Kβ (setting [1]), against PI3Kδ (setting [1]) and on PI3Kγ (setting [1]) were 9.00, 9.22 and 6.48, respectively.
Taken in the same sequence, the figures for `Cc1c[nH]nc1-n1c([C@H](C)Nc2ncnc(N)c2C#N)nc2cccc(Cl)c2c1=O` [Compound 3, (S)-4-amino-6-((1-(5-chloro-3-(4-methyl-1H-pyrazol-3-yl)-4-oxo-3,4-dihydroquinazolin-2-yl)ethyl)amino)pyrimidine-5-carbonitrile] were 7.26, 8.70 and 5.52.
Take `CC(C)Cc1cc(-n2c([C@H](C)Nc3ncnc(N)c3C#N)nc3cccc(Cl)c3c2=O)n[nH]1` [Compound 4, (S)-4-amino-6-((1-(5-chloro-3-(5-isobutyl-1H-pyrazol-3-yl)-4-oxo-3,4-dihydroquinazolin-2-yl)ethyl)amino)pyrimidine-5-carbonitrile]: the figures for the negative logarithm of the IC50 (pIC50) on PI3Kβ (setting [1]) and on PI3Kδ (setting [1]) were 7.08 and 8.15, respectively.
Take `C[C@H](Nc1ncnc(N)c1C#N)c1nc2cccc(Cl)c2c(=O)n1-c1cc(C2CC2)[nH]n1` [Compound 5, (S)-4-amino-6-((1-(5-chloro-3-(5-cyclopropyl-1H-pyrazol-3-yl)-4-oxo-3,4-dihydroquinazolin-2-yl)ethyl)amino)pyrimidine-5-carbonitrile]: the figures for the negative-log IC50 (pIC50) against PI3Kβ (setting [1]), on PI3Kδ (setting [1]) and at PI3Kγ were 6.47, 7.55 and below 5.00, respectively.
`C[C@H](Nc1ncnc(N)c1C#N)c1nc2cccc(Cl)c2c(=O)n1-c1cc(C(F)(F)F)[nH]n1` [Compound 6, (S)-4-amino-6-((1-(5-chloro-4-oxo-3-(5-(trifluoromethyl)-1H-pyrazol-3-yl)-3,4-dihydroquinazolin-2-yl)ethyl)amino)pyrimidine-5-carbonitrile]: the negative logarithm of the IC50 (pIC50) on PI3Kβ (setting [1]) was 6.14; at PI3Kδ (setting [1]), 6.82; at PI3Kγ, below 5.00.
In the same order, the values of `Cc1cc(-n2c([C@H](C)Nc3ncnc(N)c3C#N)nc3cccc(Cl)c3c2=O)n[nH]1` [Compound 7, (S)-4-amino-6-((1-(5-chloro-3-(5-methyl-1H-pyrazol-3-yl)-4-oxo-3,4-dihydroquinazolin-2-yl)ethyl)amino)pyrimidine-5-carbonitrile] are 6.70, 7.37 and below 5.00.
For the molecule `Cc1cc(-n2c([C@H](C)Nc3ncnc4scnc34)nc3cccc(Cl)c3c2=O)n[nH]1` [Compound 8, (S)-5-chloro-3-(5-methyl-1H-pyrazol-3-yl)-2-(1-(thiazolo[5,4-d]pyrimidin-7-ylamino)ethyl)quinazolin-4(3H)-one], the results for the negative logarithm of the IC50 (pIC50) at PI3Kβ (setting [1]), against PI3Kδ (setting [1]) and on PI3Kγ were 7.39, 7.96 and below 5.00, respectively.
In the same order, the values of `C[C@H](Nc1ncnc2occc12)c1nc2cccc(Cl)c2c(=O)n1-c1cc[nH]n1` [Compound 9, (S)-5-chloro-2-(1-(furo[2,3-d]pyrimidin-4-ylamino)ethyl)-3-(1H-pyrazol-3-yl)quinazolin-4(3H)-one] are 6.03, 6.85 and below 5.00.
Taken in the same sequence, the figures for `Nc1nc(N)c(Cl)c(N[C@H](c2nc3cccc(F)c3c(=O)n2-c2cc[nH]n2)C2CC2)n1` [Compound 10, (S)-2-(cyclopropyl((2,6-diamino-5-chloropyrimidin-4-yl)amino)methyl)-5-fluoro-3-(1H-pyrazol-3-yl)quinazolin-4(3H)-one] were 7.15, 7.55 and below 5.00.
Taken in the same sequence, the figures for `Nc1nc(N)c(Cl)c(N[C@H](c2nc3c(F)ccc(F)c3c(=O)n2-c2cc[nH]n2)C2CC2)n1` [Compound 11, (S)-2-(cyclopropyl((2,6-diamino-5-chloropyrimidin-4-yl)amino)methyl)-5,8-difluoro-3-(1H-pyrazol-3-yl)quinazolin-4(3H)-one] were 6.92, 7.36 and below 5.00.
For `Nc1nc(N)c(Cl)c(N[C@H](c2nc3c(F)cccc3c(=O)n2-c2cc[nH]n2)C2CC2)n1` [Compound 12, (S)-2-(cyclopropyl((2,6-diamino-5-chloropyrimidin-4-yl)amino)methyl)-8-fluoro-3-(1H-pyrazol-3-yl)quinazolin-4(3H)-one], the pIC50 against PI3Kβ (setting [1]) is 6.66; against PI3Kδ (setting [1]), 7.29; at PI3Kγ, below 5.00.
For the molecule `Nc1nc(N)c(Cl)c(N[C@H](c2nc3c(Cl)cccc3c(=O)n2-c2cc[nH]n2)C2CC2)n1` [Compound 13, (S)-8-chloro-2-(cyclopropyl((2,6-diamino-5-chloropyrimidin-4-yl)amino)methyl)-3-(1H-pyrazol-3-yl)quinazolin-4(3H)-one], the values for the pIC50 against PI3Kβ (setting [1]), against PI3Kδ (setting [1]) and at PI3Kγ were 6.85, 7.41 and below 5.00, respectively.
Regarding `Nc1nc(N)c(Cl)c(N[C@H](c2nc3cccc(Cl)c3c(=O)n2-c2cc(Cl)[nH]n2)C2CC2)n1` [Compound 14, (S)-5-chloro-3-(5-chloro-1H-pyrazol-3-yl)-2-(cyclopropyl((2,6-diamino-5-chloropyrimidin-4-yl)amino)methyl)quinazolin-4(3H)-one], the negative logarithm of the IC50 (pIC50) was 6.46 against PI3Kβ (setting [1]), 7.29 against PI3Kδ (setting [1]) and 5.12 at PI3Kγ (setting [1]).
Taken in the same sequence, the figures for `C[C@H](Nc1nc(N)nc(N)c1C#N)c1nc2cccc(Cl)c2c(=O)n1-c1cn[nH]c1` [Compound 15, (S)-2,4-diamino-6-((1-(5-chloro-4-oxo-3-(1H-pyrazol-4-yl)-3,4-dihydroquinazolin-2-yl)ethyl)amino)pyrimidine-5-carbonitrile] were 9.00, 9.40 and 7.37.
In the same order, the values of `N#Cc1c(N)nc(N)nc1N[C@H](c1nc2cccc(Cl)c2c(=O)n1-c1cn[nH]c1)C1CC1` [Compound 17, (S)-2,4-diamino-6-(((5-chloro-4-oxo-3-(1H-pyrazol-4-yl)-3,4-dihydroquinazolin-2-yl)(cyclopropyl)methyl)amino)pyrimidine-5-carbonitrile] are 8.70, 9.22 and 7.17.
Taken in the same sequence, the figures for `Nc1nc(N)c(Cl)c(N[C@H](c2nc3cccc(Cl)c3c(=O)n2-c2cn[nH]c2)C2CC2)n1` [Compound 19, (S)-5-chloro-2-(cyclopropyl((2,6-diamino-5-chloropyrimidin-4-yl)amino)methyl)-3-(1H-pyrazol-4-yl)quinazolin-4(3H)-one] were 7.49, 8.22 and 5.77.
On to `CC[C@H](Nc1nc(N)nc(N)c1C#N)c1nc2cccc(Cl)c2c(=O)n1-c1cn[nH]c1` [Compound 21, (S)-2,4-diamino-6-((1-(5-chloro-4-oxo-3-(1H-pyrazol-4-yl)-3,4-dihydroquinazolin-2-yl)propyl)amino)pyrimidine-5-carbonitrile], for which the pIC50 on PI3Kβ (setting [1]) was 8.05; at PI3Kδ (setting [1]) it was 8.70; on PI3Kγ (setting [1]), 6.64.
Take `N#Cc1c(N)nc(N)nc1N1CCC[C@H]1c1nc2cccc(Cl)c2c(=O)n1-c1cn[nH]c1` [Compound 23, (S)-2,4-diamino-6-(2-(5-chloro-4-oxo-3-(1H-pyrazol-4-yl)-3,4-dihydroquinazolin-2-yl)pyrrolidin-1-yl)pyrimidine-5-carbonitrile]: the negative-log IC50 (pIC50) against PI3Kβ (setting [1]) is 6.82; at PI3Kδ (setting [1]) it was 8.05; at PI3Kγ (setting [1]), 6.13.
As for `Nc1nc(N)c(Cl)c(N[C@H](c2nc3cccc(Cl)c3c(=O)n2-c2cc[nH]n2)C2CCC2)n1` [Compound 127, (S)-5-chloro-2-(cyclobutyl((2,6-diamino-5-chloropyrimidin-4-yl)amino)methyl)-3-(1H-pyrazol-3-yl)quinazolin-4(3H)-one], the pIC50 is 7.31 at PI3Kβ (Table 2a, same assay) and 7.68 against PI3Kδ (Table 2a, same assay).
In the same order, the values of `CC(C)[C@H](Nc1nc(N)nc(N)c1Cl)c1nc2cccc(Cl)c2c(=O)n1-c1cc[nH]n1` [Compound 146, (S)-5-chloro-2-(1-((2,6-diamino-5-chloropyrimidin-4-yl)amino)-2-methylpropyl)-3-(1H-pyrazol-3-yl)quinazolin-4(3H)-one] are 7.03 and 7.60.
For the molecule `C[C@H](Nc1nc(N)nc(C(F)F)c1Cl)c1nc2c(F)c(F)ccc2c(=O)n1-c1cc[nH]n1` [Compound 234, (S)-2-(1-((2-amino-5-chloro-6-(difluoromethyl)pyrimidin-4-yl)amino)ethyl)-7,8-difluoro-3-(1H-pyrazol-3-yl)quinazolin-4(3H)-one], the pIC50 against PI3Kδ (Table 2a, same assay) was 5.12; at PI3Kγ (Table 2a, same assay) it was below 5.00.
Take `Cc1c[nH]nc1-n1c([C@@H](NC2=NC(N)=NC3=NN=C(Br)C32)C2CC2)nc2cccc(Cl)c2c1=O` (stereo partly drawn) [Compound 242, 2-((1 S)-((6-amino-3-bromo-3aH-pyrazolo[3,4-d]pyrimidin-4-yl)amino)(cyclopropyl)methyl)-5-chloro-3-(4-methyl-1H-pyrazol-3-yl)quinazolin-4(3H)-one]: the pIC50 is 5.80 against PI3Kβ (Table 2a, same assay) and 6.66 on PI3Kδ (Table 2a, same assay).
With `C[C@H](Nc1nc(N)nc(N)c1C#N)c1nc2cccc(Cl)c2c(=O)n1-c1ccccc1` [Compound X, (S)-2,4-diamino-6-((1-(5-chloro-4-oxo-3-phenyl-3,4-dihydroquinazolin-2-yl)ethyl)amino)pyrimidine-5-carbonitrile, reference compound], the PI3Kγ/PI3Kβ ratio at PI3Kβ (ratio of IC50 values) stood at 0.6.

The values above are taken from patent US10308639B2, “Phosphatidylinositol 3-kinase inhibitors” (Gilead Sciences, Inc., priority 2014, dated 2019).
